Data taken from patent publication EP4741427A1, “GLYCAN, PREPARATION METHOD THEREFOR AND USE THEREOF, AND ANTI-TUMOR DRUG” (Peking University, priority 2023, dated 2025).

How the values were obtained:
[1] = tested on: Aspc-1; assay: CCK-8 proliferation inhibition of pancreatic cancer cells; format: cell-based; settings: 72 h
From the text: (§1) Three pancreatic cancer cell lines (Aspc-1, Bxpc-3, Panc-1) and the hepatocyte cell line LO2 used in the experiments were provided by Peking University People's Hospital and the Institute of Materia Medica, Chinese Academy of Medical Sciences. The culture conditions for Aspc-1 and Bxpc-3 cells were RPMI 1640 medium (Gibco, Thermo Fisher Scientific, USA) supplemented with 10% fetal bovine serum (HyClone, Thermo Fisher Scientific, USA) and 1% penicillin/streptomycin (Life Technologies, Thermo Fisher Scientific, USA). The culture conditions for Panc-1 and LO2 cells were DMEM medium (Gibco, Thermo Fisher Scientific, USA) supplemented with 10% fetal bovine serum (HyClone, Thermo Fisher Scientific, USA) and 1% penicillin/streptomycin (Life Technologies, Thermo Fisher Scientific, USA). Cell culture was conducted at 37°C with adequate humidity and 5% CO2 concentration.
(§2) Three types of pancreatic cancer cells (Aspc-1, Bxpc-3, Panc-1) were seeded into 96-well plates at a density of 5×10^3 cells/well (100 µL). After the cells adhered, gemcitabine (50 µM), compound 2-11 (140-mer 2-11, 50 µM), 2-30 (70-mer 2-30, 50 µM), 2-31 (40-mer 2-31, 50 µM), 2-32 (30-mer 2-32, 50 µM), 2-33 (10-mer A 2-33, 50 µM), 2-34 (10-mer B 2-34, 50 µM), 2-35 (5-mer A 2-35, 50 µM), 2-36 (5-mer B 2-36, 50 µM), and 2-37 (5-mer C 2-37, 50 µM) were added, respectively. The cells were co-incubated for 72 h. Then, 10 µL of CCK-8 reagent was added to each well and incubated at 37°C for 2 h. After thorough mixing, the absorbance at 450 nm was measured by using a microplate reader. A cell survival rate was calculated by using the following formula: Cell survival rate(%) = (ODsample−OD_blank)/(OD_control−OD_blank) × 100%. [formula]
(§3) Three types of pancreatic cancer cells (Aspc-1, Bxpc-3, and Panc-1) were seeded into 96-well plates at a density of 5×10^3 cells/well (100 µL). After the cells adhered, different concentrations of compound 2-34 (3.125 µM, 6.25 µM, 12.5 µM, 25 µM, 50 µM, 100 µM) were added. The cells were co-incubated for 72 h. Then, 10 µL of CCK-8 reagent was added to each well and incubated at 37°C for 2 h. After thorough mixing, the absorbance at 450 nm was measured by using a microplate reader, and the cell survival rate was calculated.

[2] = tested on: Panc-1; assay: as above; format: cell-based; settings: 72 h
From the text: as §1, §2, §3

[3] = tested on: Bxpc-3; assay: as above; format: cell-based; settings: 72 h
From the text: as §1, §2, §3

[4] = tested on: LO2 hepatocytes; assay: CCK-8 cytotoxicity on hepatocytes; format: cell-based, human; settings: concentration up to 100 µM, 72 h
From the text: as §1
LO2 hepatocytes were seeded into 96-well plates at a density of 5×10^3 cells/well (100 µL). After the cells adhered, different concentrations of compound 2-34 (3.125 µM, 6.25 µM, 12.5 µM, 25 µM, 50 µM, 100 µM) and the positive control drug gemcitabine (3.125 µM, 6.25 µM, 12.5 µM, 25 µM, 50 µM, 100 µM) were added, respectively. The cells were co-incubated for 72 h. […] After thorough mixing, the absorbance at 450 nm was measured by using a microplate reader, and the cell survival rate was calculated.

[5] = tested on: Panc-1 cells; assay: Apoptosis, Annexin V-FITC/PI double staining with flow cytometry; format: cell-based; settings: 72 h
Protocol: Pancreatic cancer Panc-1 cells were seeded into 24-well plates at a density of 3×10^4 cells/well. After the cells adhered, different concentrations of compound 2-34 (25 µM, 50 µM, 100 µM) were added and co-incubated for 72 h. All cells were collected, washed 2 times with PBS, and resuspended in binding buffer (Beyotime, Shanghai, China). Then, 5 µL of Annexin V-FITC (fluorescein isothiocyanate) and 10 µL of PI (propidium iodide) dye were added in sequence, and the cells were stained in the dark for 20 min. The apoptosis rate was detected by using a flow cytometer (Beckman CytoFLEX), and the specific apoptosis ratio was analyzed by using CytoFLEX software.

[6] = tested on: Panc-1 cells; assay: Cell cycle, PI staining with flow cytometry; format: cell-based; settings: 72 h
Protocol: Pancreatic cancer Panc-1 cells were seeded into 24-well plates at a density of 6×10^4 cells/well. After the cells adhered, different concentrations of compound 2-34 (25 µM, 50 µM, 100 µM) were added and co-incubated for 72 h. All cells were collected, washed 2 times with PBS, and fixated in 70% (volume fraction) ethanol overnight. The fixated cells were collected, washed 2 times with PBS, and stained with PI staining solution containing RNase (ribonuclease) in the dark for 30 min. The nucleic acid content in the cells was detected by using a flow cytometer, and the percentage of cells in each cycle phase was analyzed by using ModFit software.

Row | Molecule | inhibition at 50 µM ([1]; Homo sapiens, ASPC1, Aspc-1, 50 µM, read-out: inhibition rates) | inhibition at 50 µM ([2]; Homo sapiens, Panc-1, 50 µM, read-out: inhibition rates) | inhibition rates ([1]; Aspc-1, 50 µM) | proliferation inhibition, concentration dependence ([1]; Aspc-1, 3.125-100 µM) | inhibition rates ([3]; Bxpc-3, 50 µM) | proliferation inhibition, concentration dependence ([3]; Bxpc-3, 3.125-100 µM) | inhibition rates ([2]; Panc-1, 50 µM) | proliferation inhibition, concentration dependence ([2]; Panc-1, 3.125-100 µM) | cytotoxicity towards the growth of LO2 hepatocytes [4] | apoptosis rate ([5]; Panc-1, 25 µM) | apoptosis rate ([5]; Panc-1, 50 µM) | apoptosis rate ([5]; Panc-1, 100 µM) | number of cells in the G2 phase ([6]; Panc-1, 25 µM, 50 µM, 100 µM) | proportion of cells in the G1 phase ([6]; Panc-1, 25 µM) | proportion of cells in the S phase ([6]; Panc-1, 25 µM) | proportion of cells in the G1 phase ([6]; Panc-1, 50 µM) | proportion of cells in the S phase ([6]; Panc-1, 50 µM) | proportion of cells in the G1 phase ([6]; Panc-1, 100 µM) | proportion of cells in the S phase ([6]; Panc-1, 100 µM)
1 | Nc1ccn([C@@H]2O[C@H](CO)[C@@H](O)C2(F)F)c(=O)n1 [gemcitabine, reference compound] | 61.4% | 23.2% |  |  |  |  |  |  |  |  |  |  |  |  |  |  |  |  | 
2 | Octylβ-D-galactopyranosyl-(1→6)-β-D-galactopyranosyl-(1→6)-β-D-galactopyranosyl-( 1→6)-{α-L-arabinofuranosyl-(1→5)-α-L-arabinofuranosyl-(1→5)-α-L-arabinofuransyl-(1→5)-[ β-D-galactopyranosyl-(1→3)]-α-L-arabinofuranosyl-(1→3)-β-D-galactopyranosyl-(1→3)}-β-D-galactopyranoside [compound 2-34] |  |  | 74.9% | significant concentration dependence | 29.5% | significant concentration dependence | 72.1% | significant concentration dependence | no cytotoxicity | 31.99% | 31.92% | 67.59% | remains relatively stable with minor changes | 51.33% | 22.19% | 46.99% | 27.66% | 42.43% | 36.29%
